Results on 1 molecule are retold here after patent publication US20250188123A1, “PROTEASE INHIBITORS” (Regents of the University of Minnesota, priority 2022, published 2025).

One experiment deals with thrombin (Homo sapiens, UniProt P00734). The experiment can be described thus: Activity at thrombin proteolytic enzyme. It is filed as biochemical.
In the next experiment the target is T1, Human recombinant Casp1 (Homo sapiens, UniProt P29466).
T1 construct: purchased BioVision (Milpitas/CA, USA)
T1 sequence (P29466 120-404): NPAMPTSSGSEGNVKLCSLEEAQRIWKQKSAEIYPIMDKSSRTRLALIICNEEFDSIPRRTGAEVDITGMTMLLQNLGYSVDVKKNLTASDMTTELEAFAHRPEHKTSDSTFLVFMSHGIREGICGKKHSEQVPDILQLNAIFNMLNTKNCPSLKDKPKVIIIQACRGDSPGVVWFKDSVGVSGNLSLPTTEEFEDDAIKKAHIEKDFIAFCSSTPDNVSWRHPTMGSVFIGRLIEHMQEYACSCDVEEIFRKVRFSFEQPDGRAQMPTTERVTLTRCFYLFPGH
The experiment can be described thus: In vitro caspase panel assay, Casp1. The settings on record: Casp2 over Casp1, caspase panel. The format is biochemical. From the text:
Human recombinant Casp1, 6, 7, and 9 were purchased from BioVision (Milpitas/CA, USA). AFC fluorogenic substrates and control peptides (AcYVAD-CHO, AcVDVAD-CHO, AcDEVD-CHO, AcVEID-CHO, and AcLEHD-CHO) were purchased from Bachem (Torrance/CA, USA). The pET23b vector encoding human caspase-3 was a gift of Dr. Michelle Arkin at University of California, San Francisco. Expression and purification of Casp3 was guided by previously described protocols (Denault J-B, Salvesen G S., Current Protocols in Protein Science, 2002, 30(1), 21.13. 1-21.13. 15). Briefly, the plasmid was transformed into E. coli Rosetta 2 pLyss DE3 cells that were cultured at 1 L scale in shake flasks. […] The typical yield for the expression, isolation, and purification was approximately 3 mg/L. The DNA encoding human caspase-2 (hCASP2, amino acids 170-452, free of the N-terminal caspase activation and recruitment domain) open reading frame (ORF) was amplified via polymerase chain reaction (PCR) from full-length hCASP2 cDNA (Origene, Rockville, MD; Cat #SC321316) using following primers: forward, 5′-[…]-3′; reverse, 5′-[…]-3′. […] Proteins were stored in 1× phosphate-buffered saline (pH 7.4) at 10 mg/mL (concentration determined using a BCA assay (Thermo Fisher Scientific)), −80° C. until further use. […]

A value given as a limit tells only on which side of the number the result lay.

As for `Cc1ccc2c(c1)CCN(C(=O)[C@@H](NC(=O)[C@H](CCCC(=O)O)NC(=O)C1Cc3ccccc3N1)C(C)C)[C@@H]2C(=O)N[C@H](C#N)CC(=O)O` (stereo partly drawn) [Compound 1, (8)-6-(((S)-1-((8)-1-(((S)-2-carboxy-1-cyanoethyl)carbamoyl)-6-methyl-3,4-dihydroisoquinolin-2(1H)-yl)-3-methyl-1-oxobutan-2-yl)amino)-5-((S)-indoline-2-carboxamido)-6-oxohexanoic acid], at thrombin, the activity at thrombin result is on record as “weak activity”. At Human recombinant Casp1, the “selective versus Casp1” value is more than 2000 fold.
